Patent US11052092B2, “N-{[2-(piperidin-1-yl)phenyl](phenyl)methyl}-2-(3-oxo-3,4-dihydro-2H-1,4-benzoxazin-7-yl)acetamide derivatives and related compounds as ROR-gamma modulators for treating autoimmune diseases” (Genfit, priority 2017, dated 2021)

Legend:
[1] = tested on: Murine EL-4 lymphoma cell line overexpressing human RORγt; assay: IL-17 secretion from EL4 murine lymphoma; format: cell-based; details: Mus musculus; human RORγt-transfected EL4 cells, PMA (10 ng/mL) and ionomycin (1 μM), 24 h; read-out: IC50, IL-17 secretion inhibition
How it was run: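 EL-4 cells electroporated with hRORγt plasmid, seeded at 150000 cells/well and pretreated with compound for 24 h, then stimulated with PMA (10 ng/mL) plus ionomycin (1 μM final) with compound for a further 24 h at 37 °C. IL-17 in supernatant measured by HTRF or ELISA.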

human RORγt = target: T1, human RORγt (Homo sapiens, UniProt P51449); assay: RORE Luciferase/RORγt transactivation assay; format: cell-based; details: COS-7 cells transfected with human IL-17 promoter luciferase reporter and RORγt plasmid; 20 h with compound; read-out: IC50, RORγt activity inhibition
T1 construct: the full-length cDNA of human RORγt; expressed in transfected cells; host or cells: COS-7 (monkey kidney)
T1 sequence (P51449 1-497 isoform P51449-2): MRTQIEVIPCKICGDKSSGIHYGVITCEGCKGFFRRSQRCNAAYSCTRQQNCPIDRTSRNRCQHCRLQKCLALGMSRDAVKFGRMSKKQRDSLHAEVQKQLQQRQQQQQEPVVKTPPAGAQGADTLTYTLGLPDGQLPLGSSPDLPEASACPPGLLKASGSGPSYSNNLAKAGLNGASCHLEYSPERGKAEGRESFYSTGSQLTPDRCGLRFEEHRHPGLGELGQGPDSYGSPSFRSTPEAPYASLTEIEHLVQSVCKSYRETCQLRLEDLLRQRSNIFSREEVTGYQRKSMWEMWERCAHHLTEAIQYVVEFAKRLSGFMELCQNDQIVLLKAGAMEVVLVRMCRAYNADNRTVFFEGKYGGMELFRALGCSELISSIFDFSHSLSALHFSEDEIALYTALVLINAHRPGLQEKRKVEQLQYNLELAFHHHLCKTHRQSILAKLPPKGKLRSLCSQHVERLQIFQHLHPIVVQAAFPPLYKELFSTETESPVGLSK
How it was run: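 Transactivation read-out: luminescence (Steady-Glo, 30 min at room temperature) from COS-7 cells carrying a RORγt expression plasmid plus a 4.3 kb IL-17 promoter luciferase reporter. Compound exposure was in serum-free DMEM with 0.3% DMSO final. Reported values are IC50 (μM) and Emax (%).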

[2] = target: T2, RORγt ligand-binding domain (RORγt-LBD) (Homo sapiens, UniProt P51449); assay: Time-resolved FRET (TR-FRET) RORγt coactivator assay; details: GST-RORγ-LBD, biotinylated RIP140 peptide, 2 hours at room temperature
T2 construct: 20 nM recombinantly expressed RORγ-LBD fused to GST
T2 sequence (P51449 269-508 limits assumed): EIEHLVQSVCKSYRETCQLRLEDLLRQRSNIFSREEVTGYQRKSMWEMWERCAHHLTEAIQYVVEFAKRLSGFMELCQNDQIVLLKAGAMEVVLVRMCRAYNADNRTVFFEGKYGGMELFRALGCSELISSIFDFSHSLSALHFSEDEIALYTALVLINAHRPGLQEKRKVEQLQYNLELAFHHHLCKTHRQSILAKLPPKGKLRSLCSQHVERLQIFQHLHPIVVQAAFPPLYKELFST
Excerpt: Time-resolved FRET (TR-FRET) RORγt coactivator assay was used to identify RORγ modulator compounds with ligand-dependent coactivator displacement. The assay uses a d2-labeled anti-GST antibody, synthetic N-terminally biotinylated peptide which is derived from nuclear receptor coactivator protein RIP140, and a RORγt ligand-binding domain (RORγt-LBD) that is tagged with glutathione-S-transferase (GST). The influence of compounds on the RORγ-peptide interaction relies on the binding dependent energy transfer from a donor to an acceptor fluorophor attached to the binding partner of interest. […] For reduction of background from compound fluorescence, TR-FRET method makes use of generic fluorophore labels and time resolved detection.
The assays were done in a final volume of 20 μl in a 384 well plate in a CHAPS buffer (2 mM CHAPS; 1 mM DTT, 2 mM EDTA; 0.1% BSA), containing 20 nM recombinantly expressed RORγ-LBD fused to GST, 30 nM N-terminally biotinylated peptide, 1 nM streptavidin-terbium conjugate and 20 nM d2 labeled-anti-GST. Test compounds were diluted using 10 mM stock solution. The range of the final compound concentrations used in this test was from 0.3 nM to 30 μM (logarithmic scale). DMSO content of the samples was kept at 1%. The assay was equilibrated for 2 hours in the dark at room temperature in 384 well plates (Falcon). The signal was detected by an Ultra384 reader (TECAN). […] Compounds that promote coactivator displacement induce a concentration-dependent decrease in time-resolved fluorescent signal. Data were collected and analyzed using GraphPad Prism software (GraphPad Software V5.02, San Diego Calif. USA). IC50 in μM and Emax in % were reported for each compound.

Row | SMILES | IC50 [1] | IC50 (human RORγt) | IC50 [2]
1 | Cc1ccc(C(NC(=O)Cc2ccc3c(c2)OC(C)(C)C(=O)N3)c2ccc(C)o2)c(N2CCCCC2)c1 (stereo not drawn) [Cpd. 25, 2-(2,2-dimethyl-3-oxo-3,4-dihydro-2H-1,4-benzoxazin-7-yl)-N-{[4-methyl-2-(piperidin-1-yl)phenyl](5-methylfuran-2-yl)methyl}acetamide] | 1000 to 10000 nM | 100 to 1000 nM | 100 to 1000 nM
2 | Cc1ccc(C(NC(=O)Cc2ccc3c(c2)CS(=O)(=O)N3)c2ccc(C)o2)c(N2CCCCC2)c1 (stereo not drawn) [Cpd. 27, 2-(2,2-dioxo-1,3-dihydro-2,1-benzothiazol-5-yl)-N-{[4-methyl-2-(piperidin-1-yl)phenyl](5-methylfuran-2-yl)methyl}acetamide] | 100 to 1000 nM | 10 to 100 nM | < 10 nM
3 | Cc1ccc(C(NC(=O)Cc2ccc3c(c2)C(=Cc2cnc(N)s2)C(=O)N3)c2ccc(C)o2)c(N2CCCCC2)c1 (stereo not drawn) [Cpd. 44, 2-{3-[(2-amino-1,3-thiazol-5-yl)methylidene]-2-oxo-2,3-dihydro-1H-indol-5-yl}-N-{[4-methyl-2-(piperidin-1-yl)phenyl](5-methylfuran-2-yl)methyl}acetamide] | 1000 to 10000 nM | 100 to 1000 nM | 100 to 1000 nM
4 | Cc1ccc(C(NC(=O)Cc2ccc3c(c2)CCC3O)c2ccc(C)o2)c(N2CCCCC2)c1 (stereo not drawn) [Cpd. 52, 2-(1-hydroxy-2,3-dihydro-1H-inden-5-yl)-N-{[4-methyl-2-(piperidin-1-yl)phenyl](5-methylfuran-2-yl)methyl}acetamide] | 100 to 1000 nM | 10 to 100 nM | < 10 nM
5 | Cc1ccc(C(NC(=O)Cc2ccc3c(c2)C(O)C(=O)N3C)c2ccc(C)o2)c(N2CCCCC2)c1 (stereo not drawn) [Cpd. 53, 2-(3-hydroxy-1-methyl-2-oxo-2,3-dihydro-1H-indol-5-yl)-N-{[4-methyl-2-(piperidin-1-yl)phenyl](5-methylfuran-2-yl)methyl}acetamide] | 100 to 1000 nM | 10 to 100 nM | < 10 nM
6 | Cc1ccc(C(NC(=O)C2(c3ccc4c(c3)OCC(=O)N4)CC2)c2ccc(C)o2)c(C)c1 (stereo not drawn) [Cpd. 59, N-[(2,4-dimethylphenyl)(5-methylfuran-2-yl)methyl]-1-(3-oxo-3,4-dihydro-2H-1,4-benzoxazin-7-yl)cyclopropane-1-carboxamide] | < 100 nM | < 10 nM | < 10 nM

Second part, the compound after the results:

Row | IC50 [1] | IC50 (human RORγt) | IC50 [2] | SMILES
7 | < 100 nM | < 10 nM | < 10 nM | Cc1ccc(C(NC(=O)C2(c3ccc4[nH]cc(CCO)c4c3)CC2)c2ccc(C)o2)c(C)c1 (stereo not drawn) [Cpd. 60, N-[(2,4-dimethylphenyl)(5-methylfuran-2-yl)methyl]-1-[3-(2-hydroxyethyl)-1H-indol-5-yl]cyclopropane-1-carboxamide]
8 | < 100 nM | 10 to 100 nM | 100 to 1000 nM | Cc1ccc(C(NC(=O)Cc2ccc3[nH]cc(C)c3c2)c2ccc(C)o2)c(N2CCCCC2)c1 (stereo not drawn) [Cpd. 64, 2-(3-methyl-1H-indol-5-yl)-N-{[4-methyl-2-(piperidin-1-yl)phenyl](5-methylfuran-2-yl)methyl}acetamide]
9 | 100 to 1000 nM | 10 to 100 nM | < 10 nM | Cc1ccc(C(NC(=O)C2(c3ccc4c(c3)CS(=O)(=O)N4)CC2)c2ccc(C)o2)c(N(C)C)c1 (stereo not drawn) [Cpd. 71, N-{[2-(dimethylamino)-4-methylphenyl](5-methylfuran-2-yl)methyl}-1-(2,2-dioxo-1,3-dihydro-2,1-benzothiazol-5-yl)cyclopropane-1-carboxamide]
10 | 100 to 1000 nM | 10 to 100 nM | < 10 nM | Cc1ccc(C(NC(=O)C2(c3ccc4c(c3)CS(=O)(=O)C4)CC2)c2ccc(C)o2)c(C)c1 (stereo not drawn) [Cpd. 74, N-[(2,4-dimethylphenyl)(5-methylfuran-2-yl)methyl]-1-(2,2-dioxo-1,3-dihydro-2-benzothiophen-5-yl)cyclopropane-1-carboxamide]
11 | 100 to 1000 nM | 10 to 100 nM | < 10 nM | Cc1ccc(C(NC(=O)Cc2ccc3[nH]c(C)nc3c2)c2ccc(C)o2)c(Br)c1 (stereo not drawn) [Cpd. 77, N-[(2-bromo-4-methylphenyl)(5-methylfuran-2-yl)methyl]-2-(2-methyl-1H-1,3-benzodiazol-5-yl)acetamide]
